# From US20220087987A1, “A METHOD FOR TREATING SWI/SNF COMPLEX-DEFICIENT CANCERS COMPRISING GLUTATHIONE (GSH) METABOLIC PATHWAY INHIBITOR” (National Cancer Center, priority 2018, published 2022)
# Legend:
# [1] = tested on: SWI/SNF complexes (SMARCA2, SMARCA4, SMARCB1, PBRM1) deficient cancer cells; assay: Cell viability of SWI/SNF complex-deficient cancer cell lines; assay type: cell-based, human; conditions: treatment for 6 days
# Description: (§1) Cell viability was examined by measuring the cellular ATP level using the CellTiter-Glo Luminescent Cell Viability Assay (Promega). To measure cell viability after siRNA-mediated knockdown, cell lines were transfected with siRNAs (25 nM) using Lipofectamine RNAiMAX. After 48 hrs, cells were trypsinized and repeatedly transfected with siRNAs (25 nM) using Lipofectamine RNAiMAX. Cells were trypsinized after a further 48 hrs, counted, and reseeded at the specified density in 96-well plates. To measure cell viability after drug treatment, cells were trypsinized, counted, reseeded at the specified density in 96-well plates, and exposed to the indicated concentrations of drugs. Cell viability was measured using the CellTiter-Glo Luminescent Cell Viability Assay. Luminescence was measured using an Envision Multi-label plate reader (PerkinElmer).
# [2] = tested on: ARID1A-deficient TOV21G OCCC xenografts; assay: Mouse xenograft model, TOV21G; assay type: in vivo, mice; conditions: APR-246 50 mg/kg
# Description: All mouse experiments were approved by the National Cancer Center (NCC) animal Ethical Committee. Cells were counted and re-suspended in a 1:1 mixture of 100 μl culture medium and 100 μl Matrigel (BD Biosciences) on ice. […] In the subcutaneous model, once the tumors were palpable (about 3-14 days after implantation), mice were randomly divided into two groups. […] In the doxycycline (Dox) treatment study, TOV21G-shNT cells and TOV21G-shGCLC cells were injected into the flanks of 6-week-old female BALB/c-nu/nu mice. […] In other experiments, TOV21G-shNT cells and TOV21G-shGCLC cells were treated with Dox (0.5 μg/ml) for 4 days and then injected into the flank of 6-week-old female BALB/c-nu/nu mice. […] Tumor growth was measured every several days using calipers. The volume of implanted tumors was calculated using the formula V=L×W2/2, where V is volume (mm^3), L is the largest diameter (mm), and W is the smallest diameter (mm). At the end of the experiment, mice were sacrificed in accordance with standard protocols.
# GSH was detected using the GSH-Glo Assay (Promega). Tumor samples derived from xenografts were weighed and washed with PBS. The tumor samples were mixed with 50 μl of PBS and homogenized using a Mini Cordless Grinder (Funakoshi). PBS (950 μl) was added to homogenized tumor samples and centrifuged at 4° C. for 10 min at 15,000 rpm. Tumor extract and 2×GSH-Glo Reagent (25 μl of each) were mixed in white 96-well plates (Greiner) and incubated for 30 min at room temperature. Luciferin Detection Reagent (50 μl) was added and the samples were incubated for 15 min at room temperature. Luminescence was measured using an Envision Multi-label plate reader (PerkinElmer). GSH signal intensities per 1 mg of tumor sample were calculated.
# Formalin-fixed, paraffin-embedded ovarian cancer clinical specimens and TOV21G xenografts were deparaffinized and representative whole 4-μm-thick sections were analyzed by IHC. […] The samples were removed from the freezer and equilibrated at −20° C. for approximately 15 minutes before sectioning. Tissue sections (6 μm thick) were placed on positively charged slides, dried, and fixed for 15 minutes at room temperature in 3% formaldehyde, followed by 5 minutes in methanol at −20° C. After fixation, representative sections were analyzed by IHC. […] All IHC staining was performed using a Dako autostainer Link48 (Dako).
# First, membrane staining intensity (0, 1+, 2+, or 3+) was determined for each cell in a fixed field. The H-score was assigned using the following formula: [1×(% cells 1+)+2×(% cells 2+)+3×(% cells 3+)]. The final score, ranging from 0 to 300, gives more relative weight to higher-intensity membrane staining in a given tumor sample. The percentage of NOXA-, cleaved caspase-3-, cleaved PARP- and Ki67-positive cells (of the total number of cells) in each slide were counted.
# ROS = assay: Detection of ROS in cells (ROS-Glo); assay type: cell-based, human
# Description: GSH, ROS and apoptosis were detected using the GSH/GSSG-Glo Assay (Promega) and/or the GSH-Glo Assay (Promega), the ROS-Glo Assay (Promega), and the Caspase-Glo 3/7 Assay, respectively. To measure levels of GSH, ROS and apoptosis after drug treatment, cells were trypsinized, counted, reseeded at the specified density in 96-well plates and exposed to the indicated concentrations of drugs. After 16-48 hrs, luminescence was measured using an Envision Multi-label plate reader (PerkinElmer). To measure levels of GSH and ROS after siRNA-mediated knockdown, cell lines were transfected with siRNAs (25 nM) using Lipofectamine RNAiMAX. After 48 hrs, cells were trypsinized and transfected repeatedly with siRNAs (25 nM) using Lipofectamine RNAiMAX. Cells were trypsinized after a further 48 hrs, counted, and reseeded at the specified density in 96-well plates. After 72-120 hrs, luminescence was measured using an Envision Multi-label plate reader (PerkinElmer). Cell viability was also measured using the CellTiter-Glo Luminescent Cell Viability Assay (Promega). Caspase-3/7, GSH, and ROS levels were normalized against cell viability. The GSH/GSSG ratio was calculated as the GSH-GSSG signal divided by the GSSG/2 signal. Relative signal ratios in treated samples were normalized against untreated samples.
# [3] = tested on: bile duct cancer cell lines; assay: Cell viability of bile duct cancer cell lines; assay type: cell-based, human; conditions: treatment for 6 days
# Description: as §1
# [4] = tested on: ARID1A-proficient and ARID1A-deficient cancer cell lines; assay: Cell viability and colony formation in cancer cell line panel; assay type: cell-based, human; conditions: four ARID1A-proficient and six ARID1A-deficient cell lines; cell viability, colony formation
# [5] = tested on: ARID1A-WT and ARID1A-KO HCT116 cells; assay: Cell viability and colony formation assays; assay type: cell-based, human; conditions: cell viability 5 days, colony formation 10 days
# Description: as §1
# The effect of drug treatment on cancer cell survival was evaluated in a colony formation assay. Cells were trypsinized, counted, reseeded at the specified density in 12-well plates, exposed to the indicated concentrations of drugs for 10-14 days, and fixed for 10 min in 50% (v/v) methanol containing 0.01% (w/v) crystal violet. Images were taken on LAS-3000 Imaging System (Fujifilm) and colonies were counted using Multi Gauge software.
smiles,measurement,setting,value
COCC1(CO)C(=O)C2CCN1CC2 (stereo not drawn) [APR-246],IC50 values in SWI/SNF complexes deficient versus wild-type cell lines,[1],markedly lower in these SWI/SNF complexes deficient cell lines than in wild-type cell lines
same,GSH level in xenograft cells,[2],decreased
same,"apoptotic markers NOXA, cleaved PARP, cleaved caspase-3 and proliferation marker Ki67 (IHC)",[2],"markedly increased expression of the apoptotic markers NOXA, cleaved PARP, and cleaved caspase-3, and decreased expression of the cell proliferation marker Ki67"
same,"oxidative stress marker 8-OHdG (IHC, H-score)",[2],increased the level of the oxidative stress marker 8-hydroxy-2′-deoxyguanosine (8-OHdG) markedly
same,tumor weight,[2]; BSO 750 mg/kg,reduced
same,body weight of mice,[2]; BSO 750 mg/kg once a day,did not cause significant loss of body weight
same,growth of xenografts (tumor volume),"[2]; intraperitoneally once daily 12-14 days, BSO 750 mg/kg",significantly suppressed the growth
same,ROS level in SWI/SNF complexes-deficient cancer cells,"ROS; 40 μM APR-246, 24 hrs",increased in the ROS level
same,ROS levels in gastric cancer PDCs,"ROS; 40 or 50 μM APR-246, 48 hrs",increased more markedly in ARID1A-deficient than in ARID1A-proficient PDCs
same,intracellular ROS level (H2O2),"ROS; ARID1A-KO versus ARID1A-WT HCT116 cells, 48 hrs",increased more in ARID1A-KO cells than in ARID1A-WT cells
same,levels of ROS and apoptosis in ovarian PDCs,"ROS; ARID1A-deficient PDCs, 40-50 μM, 24-48 hrs",increased the levels of ROS and apoptosis
same,ROS level in cancer cell lines,ROS; ARID1A-deficient versus ARID1A-proficient ovarian and other cancer cells,increased ROS level
same,IC50 values in ARID1A-deficient versus ARID1A-proficient bile duct cancer cell lines,[3],markedly lower in two ARID1A-deficient cell lines than in two ARID1A-proficient cell lines
same,sensitivity of ARID1A-deficient versus ARID1A-proficient cancer cells,[4],more sensitive to APR-246 than ARID1A-proficient cancer cells
same,growth / survival of ARID1A-KO versus ARID1A-WT cells,[5],"markedly decreased the survival of ARID1A-KO cells, but not ARID1A-WT cells"
